According to a melting point compilation (Tetko et al.):

With `CN(C)C(=O)OC1N=C(c2ccccc2)c2cc(Cl)ccc2N(C)C1=O` (centres undefined) the melting point was 174 °C. Compound `CC(C)CCOC(=O)c1cc([N+](=O)[O-])cc([N+](=O)[O-])c1` has a melting point of 61 °C. For `Cc1nc(C)c(Cl)c(O)c1Cl`, the melting point was 320 °C. In the case of `Cc1ccc(NC=C2C(=O)NN=C2c2c(O)c3ccccc3n(C)c2=O)cc1`, the melting point is reported as 282 °C. Compound `NC(=O)c1ccc(Cl)c([N+](=O)[O-])c1` has a melting point of 152 °C. With `CN(C)S(=O)(=O)c1cccc(C(=O)c2ccccc2)c1` the melting point was 82 to 84 °C. With `CC12CCC(C=CC1=O)C2(C)C` (centres undefined) the melting point was 174 °C. Compound `CN(C)c1ccc(/C=C/C(=O)CCc2ccccc2)cc1` has a melting point of 93 °C. `O=C(O)Cc1cc(I)c(Oc2ccc(O)c(I)c2)c(I)c1` showed a melting point of 182 °C. `N#CCCNc1ccccc1` gave a melting point of 52.5 °C. With `C=CC(=O)N1CCOCC1` the melting point was -8 °C. Work on `CCOC(=O)CCC(NP(=O)(OC)C(C)NC(=O)CCCCN1C(=O)c2ccccc2C1=O)C(=O)OCC` (centres undefined) yielded a melting point of 79 to 82 °C. `C/C(=N\CC(O)CO)c1c(O)c2ccccc2n(-c2ccccc2)c1=O` (centres undefined) gave a melting point of 217 to 218 °C. Compound `CN1C2CCC1CC(OC(=O)c1ccccc1)C2` (centres undefined) has a melting point of 49 °C. For `NC(=S)c1cccnc1`, the melting point was 185 to 190 °C. `O=C(C=NO)Nc1cc(Cl)ccc1Cl` gave a melting point of 198 to 201 °C. `CCCCC(CC)COC(=O)C=CC(=O)OCC(CC)CCCC` (centres undefined) gave a melting point of -10 °C. `c1cc(-c2cnco2)ccn1` gave a melting point of 127 to 128 °C. In the case of `CC(=O)OCC(COC(C)=O)OC(C)=O`, the melting point is reported as 78 °C. For `O=C=Nc1cccc2c(N=C=O)cccc12`, the melting point was 130 °C. Work on `CCOc1ccc(C(NC(=O)c2ccccc2)NC(=O)c2ccccc2)cc1OC` yielded a melting point of 211 °C. Work on `CC12CCC(O)CC1=CCC1C2CCC2(C)C1CCC2(O)C#CCl` (centres undefined) yielded a melting point of 175 to 177 °C. Work on `CCCC1C(=O)C2(C)CCC1C2(C)C` (centres undefined) yielded a melting point of 128 °C. With `O=C(C=Cc1ccc([N+](=O)[O-])cc1)c1ccc(Cl)cc1` the melting point was 163 °C. `Cn1cncc1C(=O)O` gave a melting point of 247 to 248 °C. Work on `c1ccc(-c2ccc3ncccc3c2)cc1` yielded a melting point of 110 °C. `O=C(O)C=Cc1ccccc1F` gave a melting point of 179 °C. Compound `C#CC1(O)c2ccccc2-c2ccccc21` has a melting point of 110 °C. Compound `Cc1cc(NN)nc(C)n1` has a melting point of 189 to 190 °C. With `O=C(O)CCSc1ccc(Br)cc1` the melting point was 111 °C. `CN(C)c1cccc2c(S(=O)(=O)NC3CC(C)(C)N(O)C3(C)C)cccc12` (centres undefined) showed a melting point of 157 to 161 °C. Work on `CC(=O)/C=C/c1cc(N(C)C)ccc1Cc1ccc(N(C)C)cc1I` yielded a melting point of 164 °C. With `CCN(CCO)c1ccccc1` the melting point was 37 °C. Work on `O=C1C=C(NCCCc2ccccc2)C(=O)c2ccccc21` yielded a melting point of 116 °C. Compound `Cc1cc(C)c(C2(C)CC(C(=NO)c3cc4cc(Br)ccc4o3)C2)c(C)c1` (centres undefined) has a melting point of 221 to 222 °C. For `CCOC(=O)C(Nc1cccc(NC(C(=O)OCC)C(=O)OCC)c1)C(=O)OCC`, the melting point was 79 °C. For `Cc1noc(C)c1-c1nc(CCl)no1`, the melting point was 88 to 90 °C. `Cc1c(C(=O)Cl)cnn1-c1ccc(Cl)cc1` gave a melting point of 115 °C. In the case of `CCN(CC)C(=O)C(Cl)=C(C)OP(=O)(OC)OC`, the melting point is reported as -45 °C. Compound `CSc1ccc(C#N)cc1` has a melting point of 62 °C. In the case of `CC12CCC3C(CCC4CC(O)CCC43C)C1CCC2=O` (centres undefined), the melting point is reported as 185 °C. Compound `c1cc2ccc3ccc4ccc5cccc6c(c1)c2c3c4c56` has a melting point of 278 °C. `N#Cc1ccc(C=Cc2ccccc2C=O)c([N+](=O)[O-])c1` showed a melting point of 210 °C. With `Nc1ccc(Cl)nc1Cl` the melting point was 122 to 123 °C. With `O=C(N[C@H]1CC=CC[C@H]1C(=O)O)OCc1ccccc1` (relative stereo) the melting point was 118 to 124 °C. `Cc1ccc(C(=O)CBr)c(C)c1` gave a melting point of 44 °C. `Cc1cccc(C)c1NC(N)=S` showed a melting point of 195 °C. `O=C(O)CS` showed a melting point of -11 °C. For `O=C1CCC(c2ccccc2)c2ccccc21` (centres undefined), the melting point was 73 to 76 °C. Compound `CC1=CC[C@@H]2[C@@H]3CCC4CC(=O)CC[C@]4(C)[C@H]3CC[C@]12C` (some centres undefined) has a melting point of 140 to 141 °C. With `CCCCCCCCCCCCCCCCCCCC(=O)OCC` the melting point was 50 °C. With `N#Cc1c(F)cccc1I` the melting point was 50 °C. With `CC1CC(=O)c2cc(Cl)ccc2S1` (centres undefined) the melting point was 64 to 65 °C. `CC(=O)c1cc([N+](=O)[O-])c(Br)s1` gave a melting point of 105 to 106 °C. `c1cnc2c(c1)ccc1ncccc12` showed a melting point of 79 °C. Work on `C=Cc1cc(C)ccc1C` yielded a melting point of -35 °C. Compound `O=C(O)C(=O)c1cccs1` has a melting point of 89 to 95 °C. Work on `O=c1oc2cc(O)ccc2s1` yielded a melting point of 160 °C. With `Cc1cc(C(=O)O)c(-c2ccccc2)o1` the melting point was 145 to 147 °C. For `Brc1cncc(Br)c1`, the melting point was 112 °C. In the case of `Brc1cccc2cnccc12`, the melting point is reported as 82 °C. For `CC(=O)Nc1cccc2ccccc12`, the melting point was 156 to 160 °C. In the case of `O=C(O)c1c(F)ccc(F)c1O`, the melting point is reported as 152 °C. Compound `CCC(C(=O)Nc1ccc(C)cc1)C1CCC(OC)CC1` (centres undefined) has a melting point of 144 °C. `O=[N+]([O-])c1ccc(-c2ccc(-c3ccc([N+](=O)[O-])cc3)cc2)cc1` showed a melting point of 278 °C. For `CS(=O)(=O)OS(C)(=O)=O`, the melting point was 69 to 70 °C. `CC(=O)Oc1c(I)cc(I)cc1C(=O)Nc1ccc(Cl)cc1` showed a melting point of 216 °C. Compound `Nc1ccccc1Cl` has a melting point of -3 °C. In the case of `CC1CCC(C(C)C)C(OC(=O)C(C(=O)c2ccccc2)c2ccccc2)C1` (centres undefined), the melting point is reported as 115 °C. `CCC(C)(Br)CBr` (centres undefined) gave a melting point of -70 °C. Work on `OCc1ccc2ccccc2c1` yielded a melting point of 81.3 °C. In the case of `CC(=O)Nc1ccccc1CCNC(=O)c1ccc2ccccc2c1O`, the melting point is reported as 225 to 227 °C. For `CC(=O)C(=O)c1cc(C(=O)C(C)=O)c([N+](=O)[O-])cc1[N+](=O)[O-]`, the melting point was 119 °C. With `NC(=NO)c1cccc(C(F)(F)F)c1` the melting point was 82 to 88 °C. Work on `O=C(O)c1cccc2c1OCC2` yielded a melting point of 170 to 171 °C. `NCCc1ccc(-c2ccccc2)cc1` gave a melting point of 53 to 55 °C. `O=C(O)C1=Cc2ccccc2OC1` gave a melting point of 150 °C. `CC(C)(NC(=O)OCc1ccccc1)C(=O)O` gave a melting point of 77 to 80 °C. `CCC(C)OC` (centres undefined) gave a melting point of -100 °C. Compound `N#Cc1c(Cl)cccc1Oc1ccccc1` has a melting point of 61 °C. With `CC(=O)Nc1cc(C)no1` the melting point was 161 to 162 °C. Work on `O=C1NC2CC=CCC12` (centres undefined) yielded a melting point of 122 °C. Compound `C[Si](C)(C)Oc1ccccc1` has a melting point of -55 °C. For `NS(=O)(=O)c1ccc(SCCCO)c([N+](=O)[O-])c1`, the melting point was 163 °C. In the case of `O=C(O)CNC(=O)c1ccc([N+](=O)[O-])cc1`, the melting point is reported as 130 °C. Compound `CS(=O)(=O)c1ccc(N)c(Cl)c1` has a melting point of 191 to 198 °C. For `CC(=O)Nc1cccc(C(C)=O)c1`, the melting point was 127 °C. For `CCc1cccc(C(C)=O)c1`, the melting point was -20 °C. `CC(=O)C1(O)CCC2C3CC(C)C4=CC(=O)CCC4(C)C3CCC21C` (centres undefined) gave a melting point of 222 °C. `Cc1nn(C)c(C(=O)O)c1Br` showed a melting point of 225 to 226 °C. For `CCc1ncc[nH]1`, the melting point was 83 to 87 °C. Work on `CC(C)(C)OC(=O)N[C@H]1CCCNC1` yielded a melting point of 125 °C. In the case of `CCC1(CC)C(=O)NC(=S)NC1=O`, the melting point is reported as 180 °C. Compound `O=C(Cl)c1cncc(Br)c1` has a melting point of 84 to 86 °C. Compound `COC(=O)CC#N` has a melting point of -13 °C. With `CC(=O)c1ccc(-c2ccccc2[N+](=O)[O-])o1` the melting point was 79 °C. Compound `CC(C)(C=NO)NO` has a melting point of 98 to 100 °C. Compound `CCCCCCCCCCCCCCCC(=O)OCCCC` has a melting point of 16.9 °C. `NNC(=O)c1ccc(C(F)(F)F)cc1` showed a melting point of 121 °C. With `Nc1c(O)cccc1[N+](=O)[O-]` the melting point was 216 °C. In the case of `O=[N+]([O-])c1cc([N+](=O)[O-])c(Nc2ccc3c(c2)OCCOCCOCCOCCO3)c(C(F)(F)F)c1`, the melting point is reported as 171 °C. In the case of `O=[N+]([O-])c1cc([N+](=O)[O-])c(C(Cl)C(Cl)c2ccccc2)cc1/C=C\c1ccccc1` (centres undefined), the melting point is reported as 181 °C. In the case of `Cc1nnc2n1-c1sc(Br)cc1C(c1ccccc1Cl)=NC2`, the melting point is reported as 213 °C. With `Cc1ccc(C)c(CCC(C)(C)C(=O)O)c1` the melting point was 78 °C. In the case of `CCc1nn(CCCN2CCN(c3cccc(Cl)c3)CC2)c(=O)n1CCOc1ccccc1`, the melting point is reported as 83.5 °C. `NC(=O)C(CO)NC(=O)OCC1c2ccccc2-c2ccccc21` (centres undefined) showed a melting point of 155 °C. For `CC(=O)Nc1ccc(Cl)cc1Cl`, the melting point was 147 °C. For `COC(=O)C1C2CC3c4[nH]c5ccccc5c4CCN3CC2CC(OC(=O)c2cc(OC)c(OC)c(OC)c2)C1OC` (centres undefined), the melting point was 230 °C. With `CC1=C(C(=O)O)C(c2ccccc2)N(C)C(=O)N1C` (centres undefined) the melting point was 165 °C. `Oc1c(Cl)c(O)c(Cl)c(O)c1Cl` gave a melting point of 136 °C. `CC(=O)N1CCc2cc([N+](=O)[O-])ccc21` showed a melting point of 177 °C. In the case of `O=C(O)CCn1c(=O)oc2ccccc21`, the melting point is reported as 126 to 128 °C. `O=C(O)C12CC3CC(CC(Cl)(C3)C1)C2` showed a melting point of 136 to 140 °C. For `COC(=O)c1cc(I)ccc1O`, the melting point was 77 °C. For `Nc1ccc(Br)cn1`, the melting point was 138 °C. Work on `CC(C)(Cc1ccc(F)cc1)N=Cc1ccccc1` yielded a melting point of 44 °C. For `NC(=O)C1CCN(C(=O)OCc2ccccc2)CC1`, the melting point was 130 to 132 °C. With `O=C(OCc1ccccc1)ON1C(=O)CCC1=O` the melting point was 80 °C. `CCCC(=O)Oc1c[nH]c2cc(Cl)ccc12` gave a melting point of 98 to 102 °C. `NC(=NO)c1ccc(OC(F)(F)F)cc1` showed a melting point of 113 to 115 °C. For `CC(=O)Oc1ccc([N+](=O)[O-])cc1[N+](=O)[O-]`, the melting point was 69 to 75 °C. Compound `ClC(Cl)C(Cl)(Cl)C(Cl)(Cl)Cl` has a melting point of 29.4 °C. In the case of `CC(C)CCCC(C)CCCC(C)CCCCC(C)CCCC(C)CCCC(C)C` (centres undefined), the melting point is reported as -38 °C. `ClC1=C(Cl)C2(Cl)C3C4C=CC(C4)C3C1(Cl)C2(Cl)Cl` (centres undefined) gave a melting point of 240 °C. `O=Cc1c([N+](=O)[O-])cccc1[N+](=O)[O-]` gave a melting point of 119 °C. For `CN(C)c1ccc2nc3ccc(=O)cc-3sc2c1`, the melting point was 216 °C. With `O=[N+]([O-])c1cc2nccnc2cc1Cl` the melting point was 210 to 213 °C. `CCOC(=O)C(C(C)=O)C(C)C(C(C)=O)C(=O)OC1CC(C)CCC1C(C)C` (centres undefined) gave a melting point of 155 °C. With `CCCCCCCCCCCCCCCCCC(=O)OCCC` the melting point was 28.9 °C.
